Assay results: patent US8163953B2, “Compounds for lysosomal modulation and methods of use” (University of Connecticut, priority 2008, dated 2012)
Entries after “also recorded” stand apart in the source; their conditions may differ. Where two headings read alike, the source gives them in different places. Peptide text beside a SMILES is read from it. * marks the point of attachment. Cbz = O=C(OCc1ccccc1)*; CHN2 = [N-]=[N+]=C*

Legend:
cathepsin = experiment: Cathepsin enhancement and synaptic marker recovery in a protein accumulation model; type: cell-based
Description: Increased lysosomal enzyme activities are an indicator of cellular responses aimed at compensating for accumulating material. Evidence of compensatory up-regulation of lysosomal enzymes in response to lysosome stress and protein accumulation has led to the identification of a pharmacological avenue for promoting such responses. This pharmacological avenue has been used to identify and synthesize the compounds described herein, which are effective as lysosomal modulators. The base structures of PADK and Z-Phe-Phe-diazomethylketone (PPDK) were used for the design of new lysosomal modulators because PADK and PPDK enhance cathepsin levels at 0.3-10 μM, resulting in 70-80% recovery of synaptic markers that were lost in a protein accumulation model. Other modulators, including diazoacetyl-DL-2-aminohexanoic acid methyl ester, require up to 30 μM to produce neuroprotective effects, but result in only 24-42% synaptic recovery.

cathepsin D = experiment: Cathepsin D up-regulation in hippocampal slice cultures (immunoblot); type: cell-based; conditions: for EC50: increase of cathepsin D levels, slices treated daily for 3-6 days; for potency of increasing cathepsin D levels (in words) / EC2-fold (concentration needed for a 2-fold increase in cathepsin levels): hippocampal slice cultures; for potency of increasing cathepsin D levels (in words): treated daily 3-6 days
Procedure: The cultured slices were treated daily with different modulator concentrations for 3-6 days. […] BW1001 was not tested further due to its low potency.
The hippocampal slices were maintained in culture for 10-12 days to stabilize, then were treated daily with different modulator concentrations for 3 days. Then they were harvested rapidly in ice-cold buffer and homogenized in the presence of protease inhibitors.
Equal protein aliquots of the slice samples were subjected to immunoblotting to label the proform and the active form of cathepsin D (CD). FIG. 3A is an immunoblot showing PADK induced increases in the proform and active form of cathepsin D in hippocampal slice cultures. FIG. 3B is a graph showing the dose-dependent up-regulation of cathepsin D in hippocampal slice cultures by PADK and by BW1002.
Slices were treated daily for 3 days with 10 μM compound, then harvested rapidly for immunoblot assessment of active CD levels (ANOVA: P<0.0001). FIG. 5 is a bar graph showing the results of these tests. The data in FIG. 5 indicate that the non-peptide lysosomal modulators provide potent lysosomal modulation that enhances clearance of pathogenic accumulations. All data represent means±SEM.

[1] = system: pre- and postsynaptic markers; experiment: Synaptic marker assessment in treated slice cultures
Procedure: (§4) Potential toxicity was tested by assessing synaptic markers and subjecting media samples from the treated slice cultures to a standard LDH assay.

[2] = system: hippocampal slice cultures; experiment: LDH assay on media of treated slice cultures; conditions: for LDH release: media samples from treated slice cultures
Procedure: as §4

[3] = system: hippocampal slice cultures
Procedure: as §4

[4] = system: pre- and postsynaptic markers
Procedure: as §4

[5] = system: PDGF-APPSwInd transgenic mice; experiment: Synaptic protection in PDGF-APPSwInd transgenic mice (GluR1); type: in vivo; conditions: daily i.p.; BW1005 45 mg/kg, BW1002 25 mg/kg
Procedure: Modulator BW1005, was administered daily i.p. into an Alzheimer's Disease model —PDGF-APPSwInd transgenic mice. The transgenic mice are hemizygotes for a mutant form of the human APP gene containing both the Swedish (K670N/M671L) and the Indiana (V717F) mutations (APPSwInd). […] Based on its potency in relation to PADK's effect in slices and mice, BW1005 was injected i.p. daily at a dose of 45 mg/kg.
The brains of the mice were dissected and assessed for the postsynaptic marker GluR1. […] FIG. 7 is a bar graph showing the mean GluR1 measure ±SEM for each group studied (post hoc test: p=0.05). […] Changes in cathepsin levels may explain the synaptic protection.

APPSwInd mice = experiment: Rotarod performance of APPSwInd mice; type: in vivo; conditions: trials on the 8th and 9th injection days
Procedure: (§1) The improvement of synaptic integrity by PADK was also associated with the reduction of behavioral deficits in the mouse models. FIG. 9C is a bar graph showing rotorod performance for several groups of mice. […] FIG. 9D is a bar graph illustrating spontaneous alternation behavior in the second type of Alzheimer's mouse model (APPswe/PS1ΔE9). APPswe/PS1ΔE9 mice treated with vehicle or PADK were tested on the hippocampal-dependent task of spontaneous alternation behavior in a T-maze. The mice were allowed to explore starting from the intersection of a T-maze, and were monitored for the order of entries into the three arms (arms A, B, and C). In control mice, every third explored arm is usually different than the previous two (e.g., A-B-C, B-A-C, etc.; the third decision being an alternation). Alzheimer's mice, on the other hand, frequently go back into one of the previous two arms explored (e.g., A-B-A, C-B-B), thus reducing the percent alternations. […] Open field mobility assessment confirmed no change in exploratory mobility across the different groups of mice.

[6] = Adverse-effect assessment of PADK dosing in 10 month old mice; type: in vivo
Procedure: (§2) The modulator PADK up-regulates cathepsins without causing adverse effects. Hippocampal homogenates were assessed for the mice. FIGS. 6A-D are graphs showing the effects of PADK doping on various biological and physical attributes of 10 month old mice.
(§3) FIG. 6D is a graph showing the results of motor skills and spatial memory tests. Motor skills and coordination were assessed using a variable-speed rotating rod and measuring the time the animal could remain moving on the rod. Spatial memory was tested with a conditions place preference (CPP) North-South paradigm in which the animal must remember where a previous reward was presented. Thus, the lysosomal modulation occurred in the absence of any evident effects on liver/kidney integrity, blood urea levels, or on normal brain functionality.

cathepsins B and D = conditions: in vivo; cited from earlier work
[7] = system: APPSwInd and APPswe/PS1ΔE9 mice; experiment: Synaptic markers in APPSwInd and APPswe/PS1ΔE9 mice treated with PADK; type: in vivo; conditions: two Alzheimer's mouse models, immunoblot of homogenates
Procedure: To compare the BW1002/1005 results to previous PADK work, homogenate samples were analyzed by immunoblot for the presynaptic protein synapsin II and postsynaptic glutamatergic marker GluR1.

cathepsin B = experiment: In vivo lysosomal modulation by PADK in mice
Procedure: The enhanced cathepsin staining was evident in many brain regions and co-localized with the lysosomal marker LAMP-1.
as §2, §3

APPswe/PS1ΔE9 mice = experiment: Spontaneous alternation behavior in a T-maze, APPswe/PS1ΔE9 mice; type: in vivo
Procedure: as §1

[8] = system: human paired helical filaments (PHFs); experiment: Chloroquine-induced hippocampal slice model of protein accumulation, PHF immunostaining; type: cell-based; conditions: 6 days chloroquine, then 3 μM for 2 days
Description: FIGS. 2A-C are immunostains of hippocampal slice cultures for human paired helical filaments (PHFs). The pathogenic PHF was undetectable in control tissue, FIG. 2A, whereas cellular accumulation of PHF was evident after 6 days of chloroquine treatment followed by 2 days of washout, FIG. 2B. […] Size bar: 16 μm.

CCCCC(NC(=O)C=[N+]=[N-])C(=O)OC (racemic) [diazoacetyl-DL-2-aminohexanoic acid methyl ester]
concentration required to produce neuroprotective effects (cathepsin): up to 30 μM

O=C(NC(Cc1ccccc1)[C@H](O)CNCc1ccccc1)OCc1ccccc1 (stereo partly drawn) [BW1001, (2R,3S)-3-Cbz amino-2-hydroxy-4-phenyl-1-benzyl amino butane]
EC50 (cathepsin D): 20 µM

CC(=O)N(Cc1ccccc1)C[C@@H](O)C(Cc1ccccc1)NC(=O)OCc1ccccc1 (stereo partly drawn) [BW1002, (2R,3S)-3-Cbz amino-2-hydroxy-4-phenyl-1-(N-benzylacetamido) butane]
synaptic decline (pre- and postsynaptic markers) [1]: did not cause synaptic decline or LDH release
LDH release [2]: did not cause synaptic decline or LDH release
EC50 (cathepsin D): 3 µM

[N-]=[N+]=CC(=O)N(Cc1ccccc1)C[C@@H](O)[C@H](Cc1ccccc1)NC(=O)OCc1ccccc1 [BW1003, (2R,3S)-3-Cbz amino-2-hydroxy-4-phenyl-1-(N-benzyl-2-diazo-ethanamido) butane]
synaptic decline (pre- and postsynaptic markers) [1]: caused evident synaptic decline
LDH release as % of maximal LDH release produced by total cellular disruption (1% TX-100) ([2]; after 6 days of treatment): < 2%
LDH release [2]: time-dependent increase in LDH activity
EC50 (cathepsin D): 2 µM

CC(=O)N(Cc1cccc2ccccc12)C[C@@H](O)[C@H](Cc1ccccc1)NC(=O)OCc1ccccc1 [BW1004, (2R,3S)-3-Cbz amino-2-hydroxy-4-phenyl-1-(N-naphthylmethylethanamido) butane]
LDH release [3]: did not produce evident toxicity
synaptic decline (pre- and postsynaptic markers) [4]: did not produce evident toxicity
potency of increasing cathepsin D levels (in words) (cathepsin D): potencies at or near that of PADK
EC50 (cathepsin D): 20 µM

O=C(NC(Cc1ccccc1)[C@H](O)CN(Cc1ccccc1)C(=O)c1ccccc1)OCc1ccccc1 (stereo partly drawn) [BW1005, (2R,3S)-3-Cbz amino-2-hydroxy-4-phenyl-1-(N-benzylbenzamide) butane]
synaptic decline (pre- and postsynaptic markers) [1]: did not cause synaptic decline or LDH release
synaptic protection: postsynaptic marker GluR1 in brain [5]: significant synaptic protection; also recorded: greater than that provided by PADK
LDH release [2]: did not cause synaptic decline or LDH release
potency of increasing cathepsin D levels (in words) (cathepsin D): potencies at or near that of PADK
EC50 (cathepsin D): 15 µM

C[C@H](NC(=O)[C@H](Cc1ccccc1)NC(=O)OCc1ccccc1)C(=O)C=[N+]=[N-] [PADK, Z-Phe-Ala-diazomethylketone]
Rotarod performance across trials (APPSwInd mice): enabled the APPSwInd mice to improve across Rotarod trials
synaptic decline (pre- and postsynaptic markers) [1]: did not cause synaptic decline or LDH release
ALT (damage to liver function) [6]: no change in either ALT or BUN
BUN (kidney compromise) [6]: no change in either ALT or BUN
adverse effects on synaptic markers GluR1 and synaptophysin [6]: No adverse effects were evident
motor skills and coordination (variable-speed rotating rod) [6]: did not impair motor skills, coordination, or spatial memory
spatial memory (CPP North-South paradigm) [6]: did not impair motor skills, coordination, or spatial memory
rat brain levels of cathepsins B and D (cathepsins B and D): significant increases
GluR1 deficit [7]: significantly reduced the GluR1 deficit
immunostaining for the active form of cathepsin B in hippocampal cells (cathepsin B; 10-12-month old mice, 9 daily i.p. injections): dramatic increase in immunostaining
cathepsin levels in hippocampal homogenates (cathepsin B; 10 month old mice, across different dosages): dose-dependent increases in cathepsin levels
spontaneous alternations (APPswe/PS1ΔE9 mice): significantly improved alternations
clearance of chloroquine-induced PHF deposits in CA1 neurons [8]: clearance of most neuronal deposits of PHF material
LDH release [2]: did not cause synaptic decline or LDH release
EC2-fold (concentration needed for a 2-fold increase in cathepsin levels) (cathepsin D): 3.2 µM
EC50 (cathepsin D; unit μm [sic]): 10 µM
proform and active form of cathepsin D (cathepsin D; slices treated daily for 3 days, immunoblot): increased

[N-]=[N+]=CC(=O)[C@H](Cc1ccccc1)NC(=O)[C@H](Cc1ccccc1)NC(=O)OCc1ccccc1 [PPDK, Z-Phe-Phe-diazomethylketone] (Cbz-Phe-Phe-CHN2)
EC2-fold (concentration needed for a 2-fold increase in cathepsin levels) (cathepsin D): ~5 µM
EC50 (cathepsin D; unit μm [sic]): 14 µM
